# Test results taken from ChEMBL document CHEMBL2203046, “Discovery of a novel non-steroidal GR antagonist with in vivo efficacy in the olanzapine-induced weight gain model in the rat” (Bioorg Med Chem Lett, 2012).
# Key:
# Glucocorticoid receptor [1] = biological target: T1, Glucocorticoid receptor (Homo sapiens, UniProt P04150); experiment: Antagonist activity at glucocorticoid receptor in human SW1353 cells assessed as inhibition of dexamethasone-induced luciferase expression after 16 hrs by MMTV5 reporter gene assay; type: functional, cell-based
# T1 sequence (P04150 whole entry): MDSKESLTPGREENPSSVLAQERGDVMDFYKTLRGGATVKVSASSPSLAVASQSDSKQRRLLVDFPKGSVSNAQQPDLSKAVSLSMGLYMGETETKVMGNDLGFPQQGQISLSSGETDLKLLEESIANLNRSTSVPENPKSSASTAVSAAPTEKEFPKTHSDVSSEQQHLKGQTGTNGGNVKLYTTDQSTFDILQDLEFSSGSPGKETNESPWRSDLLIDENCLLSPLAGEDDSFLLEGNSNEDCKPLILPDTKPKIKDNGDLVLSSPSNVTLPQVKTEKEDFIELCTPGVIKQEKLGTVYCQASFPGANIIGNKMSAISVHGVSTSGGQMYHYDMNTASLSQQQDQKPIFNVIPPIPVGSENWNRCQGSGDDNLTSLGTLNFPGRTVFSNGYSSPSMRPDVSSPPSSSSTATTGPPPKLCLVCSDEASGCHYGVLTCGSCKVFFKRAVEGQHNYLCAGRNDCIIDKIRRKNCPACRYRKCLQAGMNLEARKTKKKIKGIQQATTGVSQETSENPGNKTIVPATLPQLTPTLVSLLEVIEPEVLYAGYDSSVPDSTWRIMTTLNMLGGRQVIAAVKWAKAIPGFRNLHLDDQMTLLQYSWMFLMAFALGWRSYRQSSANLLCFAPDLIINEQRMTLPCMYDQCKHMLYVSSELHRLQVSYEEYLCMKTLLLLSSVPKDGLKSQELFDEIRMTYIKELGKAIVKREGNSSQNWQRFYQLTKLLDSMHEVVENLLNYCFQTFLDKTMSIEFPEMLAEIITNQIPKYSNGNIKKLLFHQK
# Glucocorticoid receptor [2] = biological target: T1, Glucocorticoid receptor; experiment: Displacement of [3H]dexamethasone from human recombinant glucocorticoid receptor expressed in baculovirus after 18 hrs by scintillation counting analysis
# Rattus norvegicus [3] = experiment: Antagonist activity at glucocorticoid receptor in Sprague-Dawley rat assessed as change in olanzapine-induced weight gain at 10 mg/kg/day, po administered as divided doses twice daily for 21 days (Rvb =+ 36.5 +/- 10 g); type: functional
# Rattus norvegicus [4] = experiment: Antagonist activity at glucocorticoid receptor in Sprague-Dawley rat assessed as change in olanzapine-induced weight gain at 6 mg/kg/day, po administered as divided doses twice daily for 21 days (Rvb =+ 36.5 +/- 10 g); type: functional
# Rattus norvegicus [5] = experiment: Antagonist activity at glucocorticoid receptor in Sprague-Dawley rat assessed as change in olanzapine-induced weight gain at 2 mg/kg/day, po administered as divided doses twice daily for 21 days (Rvb =+ 36.5 +/- 10 g); type: functional
# Rattus norvegicus [6] = experiment: Antagonist activity at glucocorticoid receptor in Sprague-Dawley rat assessed as change in olanzapine-induced weight gain at 0.2 mg/kg/day, po administered as divided doses twice daily for 21 days (Rvb =+ 36.5 +/- 10 g); type: functional
# Rattus norvegicus [7] = experiment: Antagonist activity at glucocorticoid receptor in Sprague-Dawley rat assessed as change in olanzapine-induced weight gain at 0.6 mg/kg/day, po administered as divided doses twice daily for 21 days (Rvb =+ 36.5 +/- 10 g); type: functional
# [8] = Plasma protein binding in rat; type: ADME, cell-free; conditions: read-out: PPB
# [9] = Plasma protein binding in human; type: ADME, cell-free; conditions: read-out: PPB
# [10] = Half life in rat at 1 mg/kg, iv; type: ADME, organism-based; set-up: dose 1 mg/kg, route intravenous; conditions: in vivo
# [11] = Oral bioavailability in rat at 5 mg/kg; type: ADME, organism-based; conditions: in vivo
# [12] = Clearance in rat at 1 mg/kg, iv; type: ADME, organism-based; set-up: dose 1 mg/kg, route intravenous; conditions: in vivo
# Cytochrome P450 2C19 = Cytochrome P450 2C19 (Homo sapiens, UniProt P33261); experiment: Inhibition of human CYP2C19; type: ADME
# Liver microsomes [13] = experiment: Metabolic stability in human liver microsomes; type: ADME, Microsome
# Liver microsomes [14] = experiment: Metabolic stability in rat liver microsomes; type: ADME, Microsome
# Cytochrome P450 1A2 = biological target: T2, Cytochrome P450 1A2 (Homo sapiens, UniProt P05177); experiment: Inhibition of human CYP1A2; type: ADME
# T2 sequence (P05177 whole entry): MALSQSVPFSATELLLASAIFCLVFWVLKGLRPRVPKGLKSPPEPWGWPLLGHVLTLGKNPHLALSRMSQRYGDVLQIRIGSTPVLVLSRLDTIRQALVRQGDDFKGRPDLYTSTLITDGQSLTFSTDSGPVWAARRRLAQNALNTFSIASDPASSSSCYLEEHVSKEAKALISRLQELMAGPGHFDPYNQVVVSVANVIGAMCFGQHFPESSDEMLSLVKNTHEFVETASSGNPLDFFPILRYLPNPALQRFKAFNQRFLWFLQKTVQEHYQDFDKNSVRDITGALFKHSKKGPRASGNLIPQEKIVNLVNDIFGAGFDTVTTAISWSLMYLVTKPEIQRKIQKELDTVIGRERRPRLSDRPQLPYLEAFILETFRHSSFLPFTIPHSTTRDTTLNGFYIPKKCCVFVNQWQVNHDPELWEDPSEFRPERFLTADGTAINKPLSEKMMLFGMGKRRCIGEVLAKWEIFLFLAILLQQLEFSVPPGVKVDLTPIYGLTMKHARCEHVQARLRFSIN
# Cytochrome P450 2C9 = Cytochrome P450 2C9 (Homo sapiens, UniProt P11712); experiment: Inhibition of human CYP2C9; type: ADME
# Cytochrome P450 3A4 = Cytochrome P450 3A4 (Homo sapiens, UniProt P08684); experiment: Inhibition of human CYP3A4; type: ADME
# Cytochrome P450 2D6 = Cytochrome P450 2D6 (Homo sapiens, UniProt P10635); experiment: Inhibition of human CYP2D6; type: ADME
# Liver = experiment: Metabolic stability in human liver microsomes
# Chain of Cytochrome P450 2C9 (P11712 whole entry): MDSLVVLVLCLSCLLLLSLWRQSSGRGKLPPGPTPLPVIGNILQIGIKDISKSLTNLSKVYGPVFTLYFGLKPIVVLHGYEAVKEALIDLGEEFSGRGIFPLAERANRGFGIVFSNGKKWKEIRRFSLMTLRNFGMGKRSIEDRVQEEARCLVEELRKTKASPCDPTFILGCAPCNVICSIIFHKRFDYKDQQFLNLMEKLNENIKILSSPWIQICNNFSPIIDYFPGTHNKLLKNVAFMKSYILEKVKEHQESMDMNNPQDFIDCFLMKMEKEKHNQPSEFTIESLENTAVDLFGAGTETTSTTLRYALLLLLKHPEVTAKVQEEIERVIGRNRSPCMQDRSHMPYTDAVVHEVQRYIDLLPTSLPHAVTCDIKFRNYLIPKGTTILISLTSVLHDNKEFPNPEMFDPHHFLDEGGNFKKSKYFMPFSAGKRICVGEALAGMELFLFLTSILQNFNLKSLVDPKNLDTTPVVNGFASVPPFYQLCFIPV
# Chain of Cytochrome P450 3A4 (P08684 whole entry): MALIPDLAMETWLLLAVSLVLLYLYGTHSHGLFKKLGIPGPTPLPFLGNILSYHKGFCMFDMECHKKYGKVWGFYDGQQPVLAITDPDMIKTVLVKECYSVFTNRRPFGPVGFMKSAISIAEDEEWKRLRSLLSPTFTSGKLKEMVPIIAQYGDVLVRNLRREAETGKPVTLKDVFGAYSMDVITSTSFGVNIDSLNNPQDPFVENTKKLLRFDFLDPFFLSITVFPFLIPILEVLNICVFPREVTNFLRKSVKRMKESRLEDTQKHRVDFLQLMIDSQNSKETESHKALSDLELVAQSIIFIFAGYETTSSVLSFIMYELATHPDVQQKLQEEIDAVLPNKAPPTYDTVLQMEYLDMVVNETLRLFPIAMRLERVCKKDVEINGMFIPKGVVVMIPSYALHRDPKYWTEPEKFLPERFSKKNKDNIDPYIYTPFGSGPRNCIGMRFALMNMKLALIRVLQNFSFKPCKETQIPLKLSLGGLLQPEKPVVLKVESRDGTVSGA
# Chain of Cytochrome P450 2D6 (P10635 whole entry): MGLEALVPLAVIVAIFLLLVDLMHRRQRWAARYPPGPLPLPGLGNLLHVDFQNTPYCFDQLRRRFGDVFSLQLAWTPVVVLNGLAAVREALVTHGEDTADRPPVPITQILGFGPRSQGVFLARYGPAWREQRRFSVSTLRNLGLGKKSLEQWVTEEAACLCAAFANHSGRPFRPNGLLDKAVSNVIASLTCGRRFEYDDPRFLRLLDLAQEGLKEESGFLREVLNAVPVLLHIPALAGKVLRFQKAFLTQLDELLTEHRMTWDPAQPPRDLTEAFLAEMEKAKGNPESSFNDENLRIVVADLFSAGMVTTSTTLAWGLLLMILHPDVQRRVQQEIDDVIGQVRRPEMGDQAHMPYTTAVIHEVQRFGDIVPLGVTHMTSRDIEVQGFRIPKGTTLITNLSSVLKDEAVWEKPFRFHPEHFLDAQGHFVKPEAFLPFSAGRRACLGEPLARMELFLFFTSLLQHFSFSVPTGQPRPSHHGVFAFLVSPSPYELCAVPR
# Chain of Cytochrome P450 2C19 (P33261 whole entry): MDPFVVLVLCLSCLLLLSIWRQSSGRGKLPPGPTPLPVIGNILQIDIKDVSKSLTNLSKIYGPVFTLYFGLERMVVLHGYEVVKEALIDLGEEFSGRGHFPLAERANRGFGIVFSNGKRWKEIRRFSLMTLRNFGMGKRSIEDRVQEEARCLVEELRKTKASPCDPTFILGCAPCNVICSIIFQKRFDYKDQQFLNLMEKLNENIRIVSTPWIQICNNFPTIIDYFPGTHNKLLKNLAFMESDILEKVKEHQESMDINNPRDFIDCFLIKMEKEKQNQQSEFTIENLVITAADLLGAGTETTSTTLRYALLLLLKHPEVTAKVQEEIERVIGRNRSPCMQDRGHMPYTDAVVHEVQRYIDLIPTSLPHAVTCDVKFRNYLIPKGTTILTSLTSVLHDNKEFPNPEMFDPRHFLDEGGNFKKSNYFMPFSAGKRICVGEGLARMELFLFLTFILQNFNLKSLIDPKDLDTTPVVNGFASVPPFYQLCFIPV
Ki (Glucocorticoid receptor [1]),Ki (Glucocorticoid receptor [2]),SMILES,also measured
57 nM,24 nM,Cn1c(=O)[nH]c([C@H]2CC[C@@H](c3ccccc3)CC2)c(Cc2ccccc2)c1=O,–
57 nM,22 nM,Cc1cccc(Cc2c(=O)[nH]c(=O)[nH]c2[C@H]2CC[C@@H](c3ccccc3)CC2)n1,–
> 3000 nM,> 50 nM,Cc1cc(Cc2c(=O)[nH]c(=O)[nH]c2[C@H]2CC[C@@H](c3ccccc3)CC2)ccn1,–
78 nM,19 nM,CCc1ccccc1Cc1c(=O)[nH]c(=O)[nH]c1[C@H]1CC[C@@H](c2ccccc2)CC1,–
39 nM,19 nM,Cc1cccc(Cc2c(=O)n(C)c(=O)[nH]c2[C@H]2CC[C@@H](c3ccccc3)CC2)c1,–
–,> 50 nM,COCCn1c(=O)[nH]c([C@H]2CC[C@@H](c3ccccc3)CC2)c(Cc2cccc(C(F)(F)F)c2)c1=O,–
> 3000 nM,> 1500 nM,Cn1nccc1Cc1c(=O)[nH]c(=O)[nH]c1[C@H]1CC[C@@H](c2ccccc2)CC1,–
> 3000 nM,98 nM,O=c1[nH]c([C@H]2CC[C@@H](c3ccccc3)CC2)c(Cc2cccc(C(F)(F)F)c2)c(=O)n1CCO,–
56 nM,9 nM,COc1ccccc1Cc1c(=O)[nH]c(=O)[nH]c1[C@H]1CC[C@@H](c2ccccc2)CC1,–
> 300 nM,139 nM,O=c1[nH]c(=O)c(Cc2nccs2)c([C@H]2CC[C@@H](c3ccccc3)CC2)[nH]1,–
24 nM,8 nM,O=c1[nH]c(=O)c(Cc2cccc(C(F)(F)F)c2)c([C@H]2CC[C@@H](c3ccccc3)CC2)[nH]1,Activity (Rattus norvegicus [3]): -23.7 g; Activity (Rattus norvegicus [4]): -23.6 g; Activity (Rattus norvegicus [5]): -10.2 g; Activity (Rattus norvegicus [6]): 25.6 g; Activity (Rattus norvegicus [7]): 9.8 g; fraction unbound [8]: < 0.001; fraction unbound [9]: < 0.001; half-life [10]: 1.8 h; bioavailability [11]: 20%; clearance [12]: 22 mL/min/kg; inhibition (INH) (Cytochrome P450 2C19): Not Active; Stability (Liver microsomes [13]): Stable; Stability (Liver microsomes [14]): Stable; inhibition (INH) (Cytochrome P450 1A2): Not Active; inhibition (INH) (Cytochrome P450 2C9): Not Active; inhibition (INH) (Cytochrome P450 3A4): Not Active; inhibition (INH) (Cytochrome P450 2D6): Not Active
21 nM,3 nM,Cc1cccc(Cc2c(=O)[nH]c(=O)[nH]c2[C@H]2CC[C@@H](c3ccccc3)CC2)c1,–
23 nM,8 nM,O=c1[nH]c(=O)c(Cc2cc(Cl)ccc2Cl)c([C@H]2CC[C@@H](c3ccccc3)CC2)[nH]1,–
–,8 nM,O=c1[nH]c(N2CCC(c3ccccc3)CC2)c(Cc2ccccc2)c(=O)[nH]1,inhibition (INH) (Cytochrome P450 2C19): Not Active; inhibition (INH) (Cytochrome P450 1A2): Not Active; inhibition (INH) (Cytochrome P450 2C9): Not Active; inhibition (INH) (Cytochrome P450 3A4): Not Active; inhibition (INH) (Cytochrome P450 2D6): Not Active; Stability (Liver): Stable
–,32 nM,O=c1[nH]c(=O)c(Cc2ccccc2)c([C@H]2CC[C@@H](c3ccccc3)CC2)[nH]1,–
44 nM,21 nM,Cc1ccnc(Cc2c(=O)[nH]c(=O)[nH]c2[C@H]2CC[C@@H](c3ccccc3)CC2)c1,–
> 300 nM,9 nM,Cc1cccc(Cc2c(=O)n(CCN(C)C)c(=O)[nH]c2[C@H]2CC[C@@H](c3ccccc3)CC2)c1,–
25 nM,5 nM,O=c1[nH]c(=O)c(Cc2cccc(Cl)c2Cl)c([C@H]2CC[C@@H](c3ccccc3)CC2)[nH]1,–
44 nM,4 nM,O=c1[nH]c(=O)c(Cc2ccccc2)c([C@H]2CC[C@H](c3ccccc3)CC2)[nH]1,–
67 nM,11 nM,O=c1[nH]c(=O)c(Cc2c(Cl)cccc2Cl)c([C@H]2CC[C@@H](c3ccccc3)CC2)[nH]1,–
47 nM,18 nM,O=c1[nH]c(=O)c(Cc2cccc(C(F)(F)F)n2)c([C@H]2CC[C@@H](c3ccccc3)CC2)[nH]1,–
116 nM,49 nM,O=c1[nH]c(=O)c(Cc2ncccc2Cl)c([C@H]2CC[C@@H](c3ccccc3)CC2)[nH]1,–
37 nM,7 nM,O=c1[nH]c(=O)c(Cc2ccccc2Cl)c([C@H]2CC[C@@H](c3ccccc3)CC2)[nH]1,–
–,557 nM,CS(=O)(=O)c1ccccc1Cc1c(=O)[nH]c(=O)[nH]c1[C@H]1CC[C@@H](c2ccccc2)CC1,–
44 nM,11 nM,O=c1[nH]c(=O)c(Cc2ccc(Cl)cc2Cl)c([C@H]2CC[C@@H](c3ccccc3)CC2)[nH]1,–
162 nM,16 nM,Cn1c(=O)[nH]c([C@H]2CC[C@@H](c3ccccc3)CC2)c(Cc2cccc(C(F)(F)F)c2)c1=O,–
337 nM,188 nM,O=c1[nH]c(=O)c(Cc2ccccn2)c([C@H]2CC[C@@H](c3ccccc3)CC2)[nH]1,–
119 nM,28 nM,Cc1csc(Cc2c(=O)[nH]c(=O)[nH]c2[C@H]2CC[C@@H](c3ccccc3)CC2)n1,–
> 3000 nM,400 nM,O=c1[nH]c(=O)c(Cc2ncccn2)c([C@H]2CC[C@@H](c3ccccc3)CC2)[nH]1,–
